# What was measured:
# [1] = tested on: CT26.WT murine colon carcinomas; test: CT26 tumor volume, Compound A01 vs celecoxib (Example 6); format: in vivo, Female Harlan Balb/c mice (BALB/cAnNHsd)
# Description: (§1) CT26 murine colon carcinoma cells were prepared as in Example 2. Female Harlan Balb/c mice (BALB/cAnNHsd) were inoculated with 5×10^5 CT26 cells suspended in PBS (200 μL) subcutaneously high in the axilla (just under the fore limb). All mice were sorted into study groups based on caliper measurement estimation of tumor burden on Day 8 when the mean tumor burden for all animals was approximately 79 mm^3 (range of group means, 75-83 mm^3).
# [2] = Body weight in HT-29 xenograft study (Example 1); format: in vivo, CB17SCID male mice
# Description: (§2) 48 CB17SCID male mice were implanted with 2.5×10^6 HT29 cells. Growth of the tumor was calculated for each animal using a caliper and the equation: V=π×ab^2/6.
# (§3) Mouse weight and tumor volume measurements were taken on days 0, 3, 6, 9, 12, 15, 18, 21, and 22 following randomization.
# [3] = tested on: CT26 murine colon carcinoma cells; test: CT26 tumor growth, Compound A01 with anti-mPD-L1 (Example 4); format: in vivo, Female Envigo BALB/c (BALB/cAnNHsd) mice; details: for tumor growth (tumor volume): all doses 10 mg/kg, A01 oral daily, antibodies i.p.
# Description: CT26 murine colon carcinoma cells were prepared as in Example 2. Female Envigo BALB/c (BALB/cAnNHsd) were inoculated with 5×10^5 CT26 cells suspended in PBS (200 μL) subcutaneously high in the axilla (just under the fore limb). […] The antibodies were administered via i.p. injection on days 3, 6, 9, 12, and 16 following inoculation. Compound A01 was given per oral daily. The mice were euthanized two hours following final dose on Day 16 and samples were prepared for testing.
# [4] = Intratumoral concentration of Compound A01 and erlotinib (Example 1); format: in vivo, CB17SCID male mice; details: for Intratumoral concentration of Compound A01 (mean ± SD): HT-29 tumor, day 24
# Description: as §2, §3
# prostaglandin E2 (PGE2) = test: CT26 tumoral PGE-2 (Example 6); format: in vivo, Female Harlan Balb/c mice (BALB/cAnNHsd)
# Description: as §1
# [5] = tested on: immune cell infiltration into the tumors (CT26); test: Immune response to CT26 tumors: tumor-infiltrating and splenic immune cells (Example 3); format: in vivo, Female BALB/c mice; details: Day 16; compared to vehicle treated mice
# Description: Female BALB/c mice were inoculated with 10^5 CT26 colorectal cancer cells as in Example 2. […] Anti-PD1 antibody was administered i.p. (200 μg/mouse) at days 9 and 14 post inoculation. Tumors were analyzed at day 16 (7 days after first anti-PD1 administration).
# PGE2 = test: Intratumoral concentration of PGE2 in HT-29 tumors (Example 1); format: in vivo, CB17SCID male mice; details: HT-29 tumor, day 24
# Description: as §2, §3
structure (smiles),measurement,setting,value
"[2H]C([2H])([2H])c1cc(Br)cc2c1O[C@H](C(F)(F)F)C(C(=O)O)=C2 [Compound A01, (S)-6-bromo-8-trideuteromethyl-2-(trifluoromethyl)-2H-chromene-3-carboxylic acid]",CT26 Tumor Volume,"[1]; Day 8, 0.3 mg/kg",80 ± 6 mm^3
same,CT26 Tumor Volume,"[1]; Day 8, 1 mg/kg",78 ± 5 mm^3
same,CT26 Tumor Volume,"[1]; Day 8, 3 mg/kg",83 ± 3 mm^3
same,CT26 Tumor Volume,"[1]; Day 8, 10 mg/kg",79 ± 6 mm^3
same,CT26 Tumor Volume,"[1]; Day 8, 30 mg/kg",78 ± 5 mm^3
same,CT26 Tumor Volume,"[1]; Day 10, 0.3 mg/kg",139 ± 15 mm^3
same,CT26 Tumor Volume,"[1]; Day 10, 1 mg/kg",118 ± 17 mm^3
same,CT26 Tumor Volume,"[1]; Day 10, 3 mg/kg",127 ± 11 mm^3
same,CT26 Tumor Volume,"[1]; Day 10, 10 mg/kg",121 ± 14 mm^3
same,CT26 Tumor Volume,"[1]; Day 10, 30 mg/kg",119 ± 8 mm^3
same,CT26 Tumor Volume,"[1]; Day 13, 0.3 mg/kg",460 ± 73 mm^3
same,CT26 Tumor Volume,"[1]; Day 13, 1 mg/kg",286 ± 48 mm^3
same,CT26 Tumor Volume,"[1]; Day 13, 3 mg/kg",314 ± 49 mm^3
same,CT26 Tumor Volume,"[1]; Day 13, 10 mg/kg",257 ± 35 mm^3
same,CT26 Tumor Volume,"[1]; Day 13, 30 mg/kg",309 ± 34 mm^3
same,CT26 Tumor Volume,"[1]; Day 15, 0.3 mg/kg",694 ± 116 mm^3
same,CT26 Tumor Volume,"[1]; Day 15, 1 mg/kg",433 ± 67 mm^3
same,CT26 Tumor Volume,"[1]; Day 15, 3 mg/kg",560 ± 79 mm^3
same,CT26 Tumor Volume,"[1]; Day 15, 10 mg/kg",590 ± 109 mm^3
same,CT26 Tumor Volume,"[1]; Day 15, 30 mg/kg",563 ± 89 mm^3
same,CT26 Tumor Volume,"[1]; Day 17, 0.3 mg/kg",1123 ± 198 mm^3
same,CT26 Tumor Volume,"[1]; Day 17, 1 mg/kg",689 ± 114 mm^3
same,CT26 Tumor Volume,"[1]; Day 17, 3 mg/kg",834 ± 114 mm^3
same,CT26 Tumor Volume,"[1]; Day 17, 10 mg/kg",758 ± 130 mm^3
same,CT26 Tumor Volume,"[1]; Day 17, 30 mg/kg",897 ± 101 mm^3
same,Body weight,"[2]; Day 0, A01 1 mg/kg oral daily",23.4 g
same,Body weight,"[2]; Day 0, A01 10 mg/kg oral daily",23.5 g
same,Body weight,"[2]; Day 3, A01 1 mg/kg oral daily",22.4 g
same,Body weight,"[2]; Day 6, A01 1 mg/kg oral daily",21.6 g
same,Body weight,"[2]; Day 6, A01 10 mg/kg oral daily",22.0 g
same,Body weight,"[2]; Day 15, A01 1 mg/kg oral daily",20.0 g
same,Body weight,"[2]; Day 18, A01 1 mg/kg oral daily",19.9 g
same,Body weight,"[2]; Day 21, A01 1 mg/kg oral daily",19.9 g
same,Body weight,"[2]; Day 22, A01 1 mg/kg oral daily",20.0 g
same,tumor growth compared to vehicle and isotype controls,"[3]; CT26, doses 10 mg/kg",slowed
same,tumor growth (tumor volume),[3]; Day 3,0 mm^3
same,tumor growth (tumor volume),[3]; Day 4,0 mm^3
same,tumor growth (tumor volume),[3]; Day 6,8 mm^3
same,tumor growth (tumor volume),[3]; Day 9,97 mm^3
same,tumor growth (tumor volume),[3]; Day 11,242 mm^3
same,tumor growth (tumor volume),[3]; Day 13,442 mm^3
same,tumor growth (tumor volume),[3]; Day 16,759 mm^3
same,Intratumoral concentration of Compound A01 (mean ± SD),[4]; A01 1 mg/kg,1478.5 ± 652.1 µg/g
same,Intratumoral concentration of Compound A01 (mean ± SD),[4]; A01 10 mg/kg,9720 ± 2758.7 µg/g
same,increase in intratumor level of Compound A01 on addition of erlotinib,[4]; with erlotinib vs Compound A01 in the absence of erlotinib,1.5 fold
same,Mean PGE-2 Concentration (CT26 tumoral),prostaglandin E2 (PGE2); 0.3 mg/kg (Group 6),670 ng/g
same,Mean PGE-2 Concentration (CT26 tumoral),prostaglandin E2 (PGE2); 1 mg/kg (Group 5),278 ng/g
same,Mean PGE-2 Concentration (CT26 tumoral),prostaglandin E2 (PGE2); 30 mg/kg (Group 2),150 ng/g
same,"CD45+ (leukocyte), CD3+, CD8+, CD8+IFNγ+, CD4+IFNγ+, CD8+TNFα+ and CD4+TNFα+ cell infiltration into the tumors",[5],increase
same,Intratumoral concentration of PGE2 (mean ± SD),PGE2; A01 1 mg/kg,14.01 ± 30.3 µg/g
same,Intratumoral concentration of PGE2 (mean ± SD),PGE2; A01 10 mg/kg,0 µg/g
